The source of these data is ChEMBL document CHEMBL5370541, “Targeting VPS34 in autophagy: An update on pharmacological small-molecule compounds” (Eur J Med Chem, 2023).

Structures are written as SMILES.

Experiment [1] concerns the target T1, Phosphatidylinositol 3-kinase catalytic subunit type 3 (Homo sapiens, UniProt Q8NEB9). The experiment is described as follows: Inhibition of VPS34 (unknown origin) by ADP hunter plus assay.
The subject of experiment [2] is MCF7. The experiment is described as follows: Inhibition of starvation-induced autophagy in human MCF7 cells expressing eGFP-tagged LC3. It counts as functional, cell-based.
For experiment [3], the target named is T1, Phosphatidylinositol 3-kinase catalytic subunit type 3. Nature of the experiment: Binding affinity to VPS34 (unknown origin) assessed as dissociation constant by KINOMEscan analysis.
Experiment [4] deals with MCF7. The experiment is described as follows: Inhibition of rapamycin-induced autophagy in human MCF7 cells expressing eGFP-tagged LC3. It is filed as functional, cell-based.

T1 sequence (Q8NEB9 whole entry): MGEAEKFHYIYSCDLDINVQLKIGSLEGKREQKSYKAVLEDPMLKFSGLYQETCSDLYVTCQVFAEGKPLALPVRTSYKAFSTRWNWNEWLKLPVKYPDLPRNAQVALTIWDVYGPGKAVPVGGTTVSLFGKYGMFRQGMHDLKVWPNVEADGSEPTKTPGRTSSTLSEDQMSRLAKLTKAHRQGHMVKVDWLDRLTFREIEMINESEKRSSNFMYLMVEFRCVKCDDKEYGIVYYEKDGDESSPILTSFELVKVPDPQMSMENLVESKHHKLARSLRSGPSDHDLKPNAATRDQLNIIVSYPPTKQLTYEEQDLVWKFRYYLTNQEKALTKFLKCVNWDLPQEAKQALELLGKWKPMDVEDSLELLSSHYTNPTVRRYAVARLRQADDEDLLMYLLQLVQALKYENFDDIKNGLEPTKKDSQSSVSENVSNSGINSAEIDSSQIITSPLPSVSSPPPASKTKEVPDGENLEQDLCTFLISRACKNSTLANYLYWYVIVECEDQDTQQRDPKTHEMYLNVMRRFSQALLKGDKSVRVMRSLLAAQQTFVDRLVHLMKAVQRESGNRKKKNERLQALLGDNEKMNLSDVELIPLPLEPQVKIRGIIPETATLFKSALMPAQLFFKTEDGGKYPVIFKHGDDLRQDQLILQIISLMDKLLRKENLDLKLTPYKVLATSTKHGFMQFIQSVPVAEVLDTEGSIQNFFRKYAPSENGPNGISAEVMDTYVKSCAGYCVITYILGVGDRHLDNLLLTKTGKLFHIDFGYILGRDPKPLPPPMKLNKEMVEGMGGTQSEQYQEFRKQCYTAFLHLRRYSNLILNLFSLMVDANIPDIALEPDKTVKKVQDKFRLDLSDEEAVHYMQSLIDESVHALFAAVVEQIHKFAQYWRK

The IC50 is the concentration needed to halve the response being measured. With `O=C1Nc2ccc(-c3cccnc3)cc2C1=Cc1cc(Br)c(O)c(Br)c1`, the IC50 in experiment [1] is 151 nM.

As to `O=c1cc(N2CCOCC2)nc2n(Cc3cccc(Cl)c3Cl)c(C3CC3)nn12`, the half-maximal inhibitory concentration (IC50) in experiment [1] was 9.12 nM.

For `COc1ccc2nccc([C@@H](O)[C@@H]3C[C@@H]4CCN3c3c4[nH]c4nc(Cl)ccc34)c2c1`, half-maximal inhibition with MCF7 [2] (IC50) was put at 8120 nM.

What is called Kd is the constant that tells how readily two partners part at equilibrium. With `C[C@@H]1COCCN1c1cc(N2CCCC[C@@H]2C(F)(F)F)[nH]c(=O)c1`, the equilibrium dissociation constant (Kd) in experiment [3] worked out at 1 nM.

As to `O=S(=O)(c1ccc(-c2ccnc3[nH]ccc23)cc1)C1CCCC1`, the IC50 in experiment [1] was 1510 nM.

For `COc1ccc2nccc([C@@H](O)[C@@H]3C[C@@H]4CCN3c3c4[nH]c4nc(C)c(Br)cc34)c2c1`, the IC50 came to 40 nM in the experiment with MCF7 [2] and 8 nM in the experiment on MCF7 [4].

In turn, `COc1ccc2nccc([C@@H](O)[C@@H]3C[C@@H]4CCN3c3c4[nH]c4nc(C(F)(F)F)ccc34)c2c1` showed a half-inhibitory concentration (IC50) in the experiment with MCF7 [2] of 5820 nM.
